Drawing on US5665704A, “Receptor specific atrial natriuretic peptides” (Genentech, Inc., priority 1995, dated 1997), this text covers IC50 for 8 compounds.

Read-outs that look alike come from different tables or passages of the source. Bridge positions count the residues as written; N and C are the ends. Square brackets hold non-standard residues; d marks the D form. Peptide text beside a SMILES is read from it. Cha = N[C@@H](CC1CCCCC1)C(=O)O; hCys = N[C@@H](CCS)C(=O)O

One experiment has as its target T1, hNPR-A (Homo sapiens, UniProt P16066).
T1 sequence (P16066 33-1061): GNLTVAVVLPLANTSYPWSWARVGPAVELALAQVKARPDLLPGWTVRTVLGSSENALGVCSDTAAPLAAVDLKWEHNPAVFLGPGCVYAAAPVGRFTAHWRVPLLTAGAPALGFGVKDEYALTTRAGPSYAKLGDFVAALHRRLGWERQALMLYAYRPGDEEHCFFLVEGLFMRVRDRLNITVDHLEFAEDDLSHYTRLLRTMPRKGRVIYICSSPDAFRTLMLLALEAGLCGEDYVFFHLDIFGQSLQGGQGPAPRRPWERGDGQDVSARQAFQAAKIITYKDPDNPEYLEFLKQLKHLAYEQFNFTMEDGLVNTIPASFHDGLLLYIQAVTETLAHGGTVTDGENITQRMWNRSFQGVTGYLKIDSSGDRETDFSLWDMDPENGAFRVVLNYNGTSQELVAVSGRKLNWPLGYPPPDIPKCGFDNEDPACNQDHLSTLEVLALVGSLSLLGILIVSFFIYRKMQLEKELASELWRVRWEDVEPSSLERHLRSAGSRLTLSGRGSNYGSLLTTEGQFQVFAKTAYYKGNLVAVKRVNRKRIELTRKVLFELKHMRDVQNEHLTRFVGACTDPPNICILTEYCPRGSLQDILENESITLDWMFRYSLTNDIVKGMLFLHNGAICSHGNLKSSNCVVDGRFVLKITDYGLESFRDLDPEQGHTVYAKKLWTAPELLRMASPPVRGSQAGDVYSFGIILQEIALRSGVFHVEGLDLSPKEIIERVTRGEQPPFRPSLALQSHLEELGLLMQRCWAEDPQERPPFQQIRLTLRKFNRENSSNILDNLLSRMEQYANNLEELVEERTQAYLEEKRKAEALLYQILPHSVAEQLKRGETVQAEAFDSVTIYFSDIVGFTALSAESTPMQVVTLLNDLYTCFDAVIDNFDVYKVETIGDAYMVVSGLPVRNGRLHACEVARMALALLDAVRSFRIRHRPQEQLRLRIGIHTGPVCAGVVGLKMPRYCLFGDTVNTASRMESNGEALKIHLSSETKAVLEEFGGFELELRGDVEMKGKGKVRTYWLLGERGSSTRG
As to the kind of experiment: Binding affinity for hNPR-A (competitive displacement of I^125 labeled wild-type ANF). As to conditions: Table I; read-out: Binding Affinity IC50 (pM) hNPR-A.

The next experiment deals with T2, hNPR-C (Homo sapiens, UniProt P17342).
T2 sequence (P17342 27-541): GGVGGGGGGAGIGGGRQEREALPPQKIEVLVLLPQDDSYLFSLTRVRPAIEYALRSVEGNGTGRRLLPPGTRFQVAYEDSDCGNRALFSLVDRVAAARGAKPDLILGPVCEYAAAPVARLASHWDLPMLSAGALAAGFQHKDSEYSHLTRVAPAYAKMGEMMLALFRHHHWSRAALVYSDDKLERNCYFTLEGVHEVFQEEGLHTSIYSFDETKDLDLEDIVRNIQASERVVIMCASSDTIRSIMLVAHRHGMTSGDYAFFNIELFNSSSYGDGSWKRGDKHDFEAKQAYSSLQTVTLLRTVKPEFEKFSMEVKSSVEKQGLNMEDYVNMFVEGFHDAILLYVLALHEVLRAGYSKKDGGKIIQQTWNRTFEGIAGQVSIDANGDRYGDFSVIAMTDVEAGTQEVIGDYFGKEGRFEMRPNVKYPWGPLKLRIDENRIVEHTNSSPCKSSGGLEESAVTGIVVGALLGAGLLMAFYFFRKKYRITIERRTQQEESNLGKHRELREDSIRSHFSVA
The experiment in a line: Binding affinity for clearance receptor hNPR-C. From the text:
For assay systems to measure binding of hANF and the compounds of this invention to hNPR-C see: Schank, D. B., et al., Biochem. Biophys. Res. Comm. 127:433-442 (1985); Scarborough, R. M., J. Biol. Chem. 261:12960-12964 and WO 90/01940.

Where [1] appears, read: Table I, read-out: Binding Affinity IC50 (pM) hNPR-C.

As for `CC[C@H](C)[C@@H]1NC(=O)[C@H](CCCNC(=N)N)NC(=O)[C@H](CC(=O)O)NC(=O)[C@H]([C@@H](C)CC)NC(=O)[C@H](CO)NC(=O)CNC(=O)[C@H]([C@@H](C)O)NC(=O)[C@H](Cc2ccccc2)N(C)C(=O)[C@@H](NC(=O)[C@H](CO)NC(=O)[C@H](CO)NC(=O)[C@H](CCCNC(=N)N)NC(=O)[C@H](CCCNC(=N)N)NC(=O)[C@H](CC(C)C)NC(=O)[C@@H](N)CO)CSSC[C@@H](C(=O)N[C@@H](CC(N)=O)C(=O)N[C@@H](CO)C(=O)N[C@@H](Cc2ccccc2)C(=O)N[C@@H](CCCNC(=N)N)C(=O)N[C@@H](Cc2ccc(O)cc2)C(=O)O)NC(=O)CNC(=O)[C@H](CC(C)C)NC(=O)CNC(=O)[C@H](CO)NC(=O)[C@H](CCC(N)=O)NC(=O)[C@H](C)NC(=O)[C@H](CCCNC(=N)N)NC1=O` [ANF83], the IC50 (as a rule, the concentration that inhibits the measured activity by half) at hNPR-A was determined as 16 pM; at hNPR-C (setting [1]), 3.44e+06 pM.

On to `CC[C@H](C)[C@@H]1NC(=O)[C@H](CCCNC(=N)N)NC(=O)[C@H](CC(=O)O)NC(=O)[C@H]([C@@H](C)CC)NC(=O)[C@H](CO)NC(=O)CNC(=O)[C@H]([C@@H](C)O)NC(=O)[C@H](CC2CCCCC2)NC(=O)[C@@H](NC(=O)[C@H](CO)NC(=O)[C@H](CO)NC(=O)[C@H](CCCNC(=N)N)NC(=O)[C@H](CCCNC(=N)N)NC(=O)[C@H](CC(C)C)NC(=O)[C@@H](N)CO)CSSC[C@@H](C(=O)N[C@@H](CC(N)=O)C(=O)N[C@@H](CO)C(=O)N[C@@H](Cc2ccccc2)C(=O)N[C@@H](CCCNC(=N)N)C(=O)N[C@@H](Cc2ccc(O)cc2)C(=O)O)NC(=O)CNC(=O)[C@H](CC(C)C)NC(=O)CNC(=O)[C@H](CO)NC(=O)[C@H](CCC(N)=O)NC(=O)[C@H](C)NC(=O)[C@H](CCCNC(=N)N)NC1=O` [ANF79] (H-SLRRSSC[Cha]TGSIDRIRAQSGLGCNSFRY-OH; disulfide 7-23), for which the values for the IC50 on hNPR-A and at hNPR-C (setting [1]) were 2.4 pM and 1.48e+06 pM, respectively.

For `CC[C@H](C)[C@@H]1NC(=O)[C@H](CCCNC(=N)N)NC(=O)[C@H](CC(=O)O)NC(=O)[C@H](CCSC)NC(=O)[C@H](CO)NC(=O)CNC(=O)[C@H]([C@@H](C)O)NC(=O)[C@H](Cc2ccccc2)NC(=O)[C@@H](NC(=O)[C@H](CO)NC(=O)[C@H](CO)NC(=O)[C@H](CCCNC(=N)N)NC(=O)[C@H](CCCNC(=N)N)NC(=O)[C@H](CC(C)C)NC(=O)[C@@H](N)CO)CSSC[C@@H](C(=O)N[C@@H](CC(N)=O)C(=O)N[C@@H](CO)C(=O)N[C@@H](Cc2ccccc2)C(=O)N[C@@H](CCCNC(=N)N)C(=O)N[C@@H](Cc2ccc(O)cc2)C(=O)O)NC(=O)CNC(=O)[C@H](CC(C)C)NC(=O)CNC(=O)[C@H](CO)NC(=O)[C@H](CCC(N)=O)NC(=O)[C@H](C)NC(=O)CNC1=O` [ANF50] (H-SLRRSSCFTGSMDRIGAQSGLGCNSFRY-OH; disulfide 7-23), the IC50 turned out to be 570 pM at hNPR-A and 251000 pM at hNPR-C (setting [1]).

Consider `CC[C@H](C)[C@@H]1NC(=O)[C@H](CCCNC(=N)N)NC(=O)[C@H](CC(=O)O)NC(=O)[C@H]([C@@H](C)CC)NC(=O)[C@H](CCCNC(=N)N)NC(=O)CNC(=O)CNC(=O)[C@H](Cc2ccccc2)NC(=O)[C@@H](NC(=O)[C@H](CO)NC(=O)[C@H](CO)NC(=O)[C@H](CCCNC(=N)N)NC(=O)[C@H](CCCNC(=N)N)NC(=O)[C@H](CC(C)C)NC(=O)[C@@H](N)CO)CSSC[C@@H](C(=O)N[C@@H](CC(N)=O)C(=O)N[C@@H](CO)C(=O)N[C@@H](Cc2ccccc2)C(=O)N[C@@H](CCCNC(=N)N)C(=O)N[C@@H](Cc2ccc(O)cc2)C(=O)O)NC(=O)CNC(=O)[C@H](CC(C)C)NC(=O)CNC(=O)[C@H](CO)NC(=O)[C@H](CCC(N)=O)NC(=O)[C@H](C)NC(=O)[C@H](CCCNC(=N)N)NC1=O` [ANF24], for which, at hNPR-C (setting [1]), the IC50 is 5640 pM.

On to `CC[C@H](C)[C@@H]1NC(=O)[C@H](CCCNC(=N)N)NC(=O)[C@H](CC(=O)O)NC(=O)[C@H]([C@@H](C)CC)NC(=O)[C@H](CO)NC(=O)CNC(=O)[C@H]([C@@H](C)O)NC(=O)[C@H](Cc2ccccc2)NC(=O)[C@@H](CO)NC(=O)[C@@H](NC(=O)[C@H](CO)NC(=O)[C@H](CO)NC(=O)[C@H](CCCNC(=N)N)NC(=O)[C@H](CCCNC(=N)N)NC(=O)[C@H](CC(C)C)NC(=O)[C@@H](N)CO)CSSC[C@@H](C(=O)N[C@@H](CC(N)=O)C(=O)N[C@@H](CO)C(=O)N[C@@H](Cc2ccccc2)C(=O)N[C@@H](CCCNC(=N)N)C(=O)N[C@@H](Cc2ccc(O)cc2)C(=O)O)NC(=O)CNC(=O)[C@H](CC(C)C)NC(=O)CNC(=O)[C@H](CO)NC(=O)[C@H](CCC(N)=O)NC(=O)[C@H](C)NC(=O)[C@H](CCCNC(=N)N)NC1=O` [ANF74] (H-SLRRSSC[dS]FTGSIDRIRAQSGLGCNSFRY-OH; disulfide 7-24), for which the IC50 on hNPR-A was found to be 29400 pM; at hNPR-C (setting [1]), 1e+07 pM.

For the compound `CC[C@H](C)[C@@H]1NC(=O)[C@H](CCCNC(=N)N)NC(=O)[C@H](CC(=O)O)NC(=O)[C@H]([C@@H](C)CC)NC(=O)[C@H](CO)NC(=O)CNC(=O)[C@H]([C@@H](C)O)NC(=O)[C@H](Cc2ccccc2)NC(=O)[C@@H](NC(=O)[C@H](CO)NC(=O)[C@H](CO)NC(=O)[C@H](CCCNC(=N)N)NC(=O)[C@H](CCCNC(=N)N)NC(=O)[C@H](CC(C)C)NC(=O)[C@@H](N)CO)CSSC[C@@H](C(=O)N[C@@H](CC(N)=O)C(=O)N[C@@H](CO)C(=O)N[C@@H](Cc2ccccc2)C(=O)N[C@@H](CCCNC(=N)N)C(=O)N[C@@H](Cc2ccc(O)cc2)C(=O)O)NC(=O)CNC(=O)[C@H](CC(C)C)NC(=O)CNC(=O)[C@H](CO)NC(=O)[C@H](CCC(N)=O)NC(=O)[C@H](C)NC(=O)[C@H](CCCNC(=N)N)NC1=O` [ANF27], on hNPR-C (setting [1]), the IC50 was 1e+06 pM.

With `CC[C@H](C)[C@@H]1NC(=O)[C@H](CCCNC(=N)N)NC(=O)[C@H](CC(=O)O)NC(=O)[C@H]([C@@H](C)CC)NC(=O)[C@H](CO)NC(=O)CNC(=O)[C@@H](C)NC(=O)[C@H](Cc2ccccc2)NC(=O)[C@@H](NC(=O)[C@H](CO)NC(=O)[C@H](CO)NC(=O)[C@H](CCCNC(=N)N)NC(=O)[C@H](CCCNC(=N)N)NC(=O)[C@H](CC(C)C)NC(=O)[C@@H](N)CO)CSSC[C@@H](C(=O)N[C@@H](CC(N)=O)C(=O)N[C@@H](CO)C(=O)N[C@@H](Cc2ccccc2)C(=O)N[C@@H](CCCNC(=N)N)C(=O)N[C@@H](Cc2ccc(O)cc2)C(=O)O)NC(=O)CNC(=O)[C@H](CC(C)C)NC(=O)CNC(=O)[C@H](CO)NC(=O)[C@H](CCC(N)=O)NC(=O)[C@H](C)NC(=O)[C@H](CCCNC(=N)N)NC1=O` [ANF78], the IC50 on hNPR-C worked out at 8640 pM.

Take `CC[C@H](C)[C@@H]1NC(=O)[C@H](CO)NC(=O)[C@H](CC(=O)O)NC(=O)[C@H](CC(C)C)NC(=O)[C@H](CO)NC(=O)CNC(=O)[C@H]([C@@H](C)O)NC(=O)[C@H](Cc2ccccc2)NC(=O)[C@@H](NC(=O)[C@H](CO)NC(=O)[C@H](CO)NC(=O)[C@H](CCCNC(=N)N)NC(=O)[C@H](CC(=O)O)NC(=O)[C@H](CC(C)C)NC(=O)[C@@H](N)CO)CSSC[C@@H]2NC(=O)CNC(=O)[C@H](CC(C)C)NC(=O)CNC(=O)[C@H](CO)NC(=O)[C@H](CCSSCC[C@@H](C(=O)O)NC(=O)[C@H](CCCNC(=N)N)NC(=O)[C@H](Cc3ccccc3)NC(=O)[C@H](CO)NC(=O)[C@H](CC(N)=O)NC2=O)NC(=O)[C@H](C)NC(=O)[C@H](CCCNC(=N)N)NC1=O` [ANF70] (H-SLDRSSCFTGSLDSIRA[hCys]SGLGCNSFR[hCys]-OH; disulfide 7-23, 18-28): on hNPR-A, the 50% inhibitory concentration (IC50) stood at 3300 pM.
